Laboratory results taken from US11582989B2, “Stress management in livestock” (Charles Sturt University, priority 2013, dated 2023).
Where two headings read alike, the source gives them in different places.

Legend:
[1] = sheep
Experimental: (§1) NaBr solution was administered through the cephalic vein using a 21 gauge needle over a period of 1 minute. Sheep were restrained in a seated position. Blood samples were collected at 0, 1, 5, 10, 15, 20 and 30 min and then at 1, 2, 3, 4, 6, 8, 10, 12, 24 h. Samples thereafter were collected at 12 h intervals to 240 h then at 24 h intervals to 336 h. A final sample was taken at 528 h. For each sample, the initial 2 mL of blood collected was discarded and a sterile syringe used to withdraw 5 mL of blood which was then placed into a plain separator blood tube (Vacuette: Greiner Bio-one). The cannulas were flushed with 3 mL of 5% heparinised saline after each collection. Each blood sample was left to stand for 30 min before centrifugation at 2000 g for 5 min. Serum was harvested and stored at −20° C. until analysis.
(§2) KBr solution was administered via an orogastric tube, then flushed with 500 mL water. Blood samples were collected at 0, 1, 2, 3, 4, 6, 8, 10, 12, 24 h, then at 12 h intervals to 240 h, then at 24 h intervals to 336 h. A final sample was taken at 504 h. When collecting blood samples at 1 h through to 10 h the rumen was auscultated, over the caudo-dorsal blind sack, to determine if the high salt load affected rumen motility.
Absorbance was measured with a spectrophotometer at 440 nm.

[2] = Weight gain under mildly stressful management conditions; assay type: in vivo, mice; conditions: potassium bromide 250 mg/L in drinking water, 7 days, mild stress, vs control
Experimental: (§3) A model system was established to induce stress in rodents by repeated behavioural testing using the AnyMaze™ rodent behavioural monitoring system. […] At the end of 7 days animals were subjected to a number of behavioural tests to assess level of stress. Weight gain was also analysed in the treatment group by recording body weight over the initial 7 day period.
(§4) C57B16/Ola male mice at 5 weeks of age were purchased from MAS Client Services, Monash University, Melbourne, Australia. Animals were weighed at the start of the test period and daily for the duration of testing.
(§5) Animals were weighed 3 times during the experiment (7 days). To initiate a mildly stressful situation, animals were exposed to novel arena, parallel rod and tremor tests using the mouse AnyMaze™ system (AnyMaze™, Stoelting, U.S.A.).

[3] = Podell and Fenner, 1993; cited from earlier work
C57B16/Ola male mice [4] = assay: Novel arena test, freezing response episodes (AnyMaze); assay type: in vivo; conditions: potassium bromide 250 mg/L in drinking water for 7 days, vs normal drinking water
Experimental: Animals were placed in the centre of an open arena which was unfamiliar to them and their rate and range of movement tracked by digital recognition software. Distance, speed and time spent immobile were analysed using the AnyMaze™ software. Results were compared statistically using SPSS™.

[5] = sheep, 120 mg/kg
Experimental: as §1, §2

[6] = cited from earlier work
[7] = Weight gain of Merino ewe lambs after mulesing and tail docking; assay type: in vivo
[8] = horse (Raidal and Edwards, 2008); cited from earlier work
C57B16/Ola male mice [9] = conditions: potassium bromide 250 mg/L in drinking water for 7 days
Experimental: as §3, §4, §5

[10] = 300 mg/kg LW oral bromide immediately prior to procedure, n=20

## Br [bromide]
[1]; IV
  t½: 16.2 days
[1]; PO
  absorption following PO administration: absorbed rapidly
  half-life (t½): approximately 14 days
[1]; PO 120 mg/kg, for 14 d
  serum Br concentration range: 200 to 400 mg/L
[2]
  weight gain: increased weight gain
[3]
  anticonvulsant range (Br concentration): 1.0 to 2.0 mg/mL
C57B16/Ola male mice [4]
  freezing response episodes in novel arena test: trend towards decreased freezing response episodes
[5]; IV and PO groups
  adverse reactions: No adverse reactions were noted
[5]; IV
  duration of tranquilising effect post-injection: 1 to 2 h
  tranquilising effect (subjective observation): mild tranquilising effect
[5]; PO group
  neurological effects: no discernable neurological effects
[5]; PO group, auscultated 1 h to 10 h
  rumen motility: no observed alteration in rumen motility
[6]; dog (Trepanier and Babish, 1995)
  t½: 12 to 24 days
[6]; dog (Trepanier and Babish, 1995b)
  bioavailability: 40%
[7]; 300 mg/kg LW oral bromide
  mean weight gain between day 7 and 14: 1.80 ± 0.30 kg
[7]; [10]
  mean live weight on day 51: 22.17 ± 0.86 kg
  mean weight gain after 51 days: 8.52 ± 0.57 kg
[7]; 300 mg/kg LW oral bromide, first seven days
  Day 1-7 mean weight change: -0.564 ± 1.29 kg
[7]; 300 mg/kg LW oral, after 14 days
  weight gain compared to untreated counterparts: enhanced weight gain
[7]; over 51 days
  live weight gain: 0.16 kg per head per day
[7]; over the 51 days of the trial
  weight gain per head per day: 0.57
[7]; vs control, over 51 days
  increase in production gain: 11%
[8]
  estimated bioavailability: 32-38%
  t½: approximately 3 d
C57B16/Ola male mice [9]
  signs of ataxia: no signs of ataxia
C57B16/Ola male mice [9]; vs normal drinking water
  parallel rod touches: significantly more touches

## [Br-].[K+] [potassium bromide]
[2]
  weight gain: significant weight gain
C57B16/Ola male mice [4]
  freezing response episodes in novel arena test: trend was towards decreased freezing episodes
[7]; 300 mg/kg LW oral at time of mulesing and tail docking, over 51 days
  weight gain compared to untreated counterparts: trend towards increased weight gain
